The values below come from ChEMBL document CHEMBL1201862, “PubChem BioAssay data set” (2004).

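Tested at 5 concentrations; 48 h exposure; 96-well plates; endpoints linearly interpolated, else capped at highest concentration. At the GI50, growth is halved.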 Active and inactive are the calls of the source. Rule as the data show it: active = GI50 up to about 1.1 µM and inactive = higher.

Some test systems named below: BT-549; CCRF-CEM; EKVX; HOP-62; HOP-92; HT-29; Hs-578T; LOX IMVI; M14; NCI-H226; NCI-H522; OVCAR-5; RPMI-8226; SF-268; SK-OV-3; SN12C; SW-620; UACC-257; UACC-62; OVCAR-3.
What all share (assay): NCI tumour cell line growth inhibition, 48 h

Turning to `Cc1ccc(-c2c(C#N)c(-c3ccc(Cl)cc3)c(C#N)c(=O)n2NS(=O)(=O)c2ccccc2)cc1`, the GI50 is 34.4 µM (inactive) in the assay on BT-549; 34.4 µM (inactive) in the assay with CCRF-CEM; 77.4 µM (inactive) in the assay with EKVX; 23.4 µM (inactive) in the assay on HOP-62; 25.2 µM (inactive) in the assay on HOP-92; > 100 µM (inactive) in the assay with HT-29. Besides, the GI50 in the assay with Hs-578T was 24.4 µM (inactive); in the assay with LOX IMVI it was 42.3 µM (inactive); in the assay with M14, > 100 µM (inactive); in the assay with NCI-H226 it was 77.3 µM (inactive); in the assay with NCI-H522, 38.1 µM (inactive); in the assay with OVCAR-5 it was > 100 µM (inactive). Also, the GI50 in the assay on RPMI-8226 was 18.4 µM (inactive); in the assay on SF-268 it was 67 µM (inactive); in the assay with SK-OV-3, > 100 µM (inactive); with SN12C, 95.1 µM (inactive); in the assay on SW-620 it was > 100 µM (inactive); with UACC-257, > 100 µM (inactive). The GI50 in the assay with UACC-62 is 58.6 µM (inactive).
With `N=C(N)NCC1CCCCCCN1` (centres undefined), the GI50 with BT-549, in the assay with CCRF-CEM, in the assay with EKVX, with HOP-62, in the assay on HOP-92 and in the assay with HT-29 was > 100 µM (inactive) in each case. The GI50 in the assay on Hs-578T, in the assay on M14, in the assay with NCI-H226, in the assay on NCI-H522, with OVCAR-3 and with OVCAR-5 was > 100 µM (inactive) throughout. Besides, the GI50 in the assay with RPMI-8226, in the assay with SF-268, in the assay on SK-OV-3, with SN12C, in the assay on SW-620 and in the assay on UACC-257 was > 100 µM (inactive) each time. Further, the GI50 with UACC-62 was > 100 µM (inactive).
Turning to `COC(=O)[C@]1(C)CCC[C@@]2(C)C1CC[C@]13C=C(C(C)C)[C@H](CC21)CC3(Cl)C#N` (some centres undefined), the GI50 is 35.6 µM (inactive) with BT-549; 20.7 µM (inactive) in the assay with CCRF-CEM; 31.5 µM (inactive) in the assay with EKVX; 36.3 µM (inactive) with HOP-62; > 100 µM (inactive) in the assay on HOP-92; 27.4 µM (inactive) in the assay with HT-29. Moreover, the GI50 was > 100 µM (inactive) in the assay with Hs-578T; 38.4 µM (inactive) in the assay with M14; 22.8 µM (inactive) in the assay on NCI-H226; 26.5 µM (inactive) in the assay with NCI-H522; 35 µM (inactive) in the assay on OVCAR-3; > 100 µM (inactive) in the assay with OVCAR-5. Besides, the GI50 in the assay with SF-268 is 46.3 µM (inactive); with SK-OV-3, > 100 µM (inactive); in the assay with SN12C, 51.1 µM (inactive); in the assay on SW-620 it was 37.6 µM (inactive); in the assay on UACC-257 it was 27.7 µM (inactive); with UACC-62, 37.7 µM (inactive).
Consider `NCCCCN(CCCN)Cc1ccc2ccccc2c1`, for which the GI50 is 90.4 µM (inactive) with BT-549; 27.1 µM (inactive) with CCRF-CEM; 21.3 µM (inactive) with EKVX; 29 µM (inactive) with HOP-92; 23.3 µM (inactive) in the assay on HT-29; 11.3 µM (inactive) in the assay on Hs-578T. In addition, the GI50 with LOX IMVI was 29.2 µM (inactive); in the assay with M14 it was 57 µM (inactive); with NCI-H226, 21.5 µM (inactive); in the assay with NCI-H522 it was 13.5 µM (inactive); with OVCAR-5, 28.8 µM (inactive); in the assay with RPMI-8226, > 100 µM (inactive). Besides, the GI50 is 12.6 µM (inactive) with SF-268; 96.4 µM (inactive) in the assay on SK-OV-3; 12.9 µM (inactive) with SN12C; > 100 µM (inactive) with SW-620; > 100 µM (inactive) in the assay with UACC-257; 95.7 µM (inactive) in the assay with UACC-62.
Turning to `O=C1CCCCN1C(=O)c1ccc([N+](=O)[O-])cc1`, the GI50 with BT-549, with CCRF-CEM, with EKVX, in the assay on HOP-62, in the assay on HOP-92 and in the assay with HT-29 was > 100 µM (inactive) throughout. In addition, the GI50 in the assay on Hs-578T, in the assay on LOX IMVI, in the assay on M14, in the assay with NCI-H226, in the assay with NCI-H522 and in the assay with OVCAR-3 was > 100 µM (inactive) throughout. The GI50 in the assay with OVCAR-5 was > 100 µM (inactive); with RPMI-8226, > 100 µM (inactive); in the assay on SF-268 it was > 100 µM (inactive); with SN12C, 24 µM (inactive); with SW-620, > 100 µM (inactive); in the assay on UACC-257, > 100 µM (inactive). Further, the GI50 with UACC-62 was 37.3 µM (inactive).
For `O=S(=O)(O)c1cc(S(=O)(=O)O)c2c(/N=N/c3ccc(/N=N/c4ccccc4)cc3)c(O)ccc2c1`, the GI50 in the assay with BT-549, with CCRF-CEM, in the assay with EKVX, in the assay on HOP-62, in the assay on HOP-92 and with HT-29 was > 100 µM (inactive) in each case. Also, the GI50 with Hs-578T, with M14, in the assay on NCI-H226, in the assay with NCI-H522, with OVCAR-3 and with OVCAR-5 was > 100 µM (inactive) each time. The GI50 in the assay on RPMI-8226, in the assay on SF-268, in the assay on SK-OV-3, with SN12C, with SW-620 and in the assay on UACC-257 was > 100 µM (inactive) in each case. Besides, in the assay on UACC-62, the GI50 was > 100 µM (inactive).
For `COc1ncc(/C=C2\OC(=O)c3ccccc32)c(OC)n1`, the GI50 is 0.402 µM (active) in the assay with BT-549; 39.1 µM (inactive) with CCRF-CEM; 23.5 µM (inactive) in the assay on EKVX; 12.1 µM (inactive) in the assay on HOP-62; 47.5 µM (inactive) in the assay on HOP-92; 64.6 µM (inactive) with HT-29. The GI50 with Hs-578T is 10.1 µM (inactive); in the assay on LOX IMVI it was 7.16 µM (inactive); in the assay with M14, 72.3 µM (inactive); in the assay with NCI-H226, 66.1 µM (inactive); in the assay on NCI-H522 it was 26.1 µM (inactive); in the assay with OVCAR-3 it was 24.9 µM (inactive). Besides, the GI50 in the assay with OVCAR-5 is > 100 µM (inactive); in the assay on RPMI-8226, 5.94 µM (inactive); with SF-268, 32.6 µM (inactive); in the assay on SN12C it was > 100 µM (inactive); with SW-620, > 100 µM (inactive); in the assay with UACC-257, 57.3 µM (inactive).
Regarding `O=c1oc2ccccc2cc1-c1nc2ccccc2c(=O)[nH]1`, the GI50 is 77.8 µM (inactive) with BT-549; > 100 µM (inactive) with CCRF-CEM; > 100 µM (inactive) in the assay on EKVX; > 100 µM (inactive) in the assay with HOP-62; > 100 µM (inactive) with HOP-92; > 100 µM (inactive) in the assay on HT-29. Besides, the GI50 in the assay with Hs-578T, in the assay with LOX IMVI, in the assay with M14, in the assay with NCI-H226, in the assay on NCI-H522 and in the assay with OVCAR-5 was > 100 µM (inactive) throughout. In addition, the GI50 in the assay on RPMI-8226, in the assay with SF-268, with SK-OV-3, in the assay on SN12C, in the assay with SW-620 and in the assay on UACC-257 was > 100 µM (inactive) each time. Moreover, the GI50 in the assay on UACC-62 is > 100 µM (inactive).
